Test results as given in article PMC3135366 (The Journal of Experimental Medicine, 2011).

Target: T1, E. coli DOXPRI (Escherichia coli, UniProt P45568)
T1 sequence (P45568 1-398): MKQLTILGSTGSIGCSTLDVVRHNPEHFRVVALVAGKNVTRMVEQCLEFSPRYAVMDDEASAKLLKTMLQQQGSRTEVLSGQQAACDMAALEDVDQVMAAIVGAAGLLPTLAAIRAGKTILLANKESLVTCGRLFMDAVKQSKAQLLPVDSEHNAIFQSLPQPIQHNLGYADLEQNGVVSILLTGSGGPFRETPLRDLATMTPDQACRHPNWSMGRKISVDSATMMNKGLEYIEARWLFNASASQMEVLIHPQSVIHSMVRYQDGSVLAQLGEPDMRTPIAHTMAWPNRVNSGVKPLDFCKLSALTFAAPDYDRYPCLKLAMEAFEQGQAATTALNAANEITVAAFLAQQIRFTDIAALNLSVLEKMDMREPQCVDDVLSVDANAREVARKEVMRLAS
Test: NADPH oxidation assay
Type: biochemical

Question: With `NC(=O)C1=CN([C@@H]2O[C@H](COP(=O)(O)OP(=O)(O)OC[C@H]3O[C@@H](n4cnc5c(N)ncnc54)[C@H](OP(=O)(O)O)[C@@H]3O)[C@@H](O)[C@H]2O)C=CC1` [NADPH] as the molecule, how does the NADPH oxidation assay read?
Answer: Its NADPH oxidation assay is “noted robust activity for the E. coli enzyme expressed in parallel”.
